We go through two molecules from PMC12668308, “A Novel Antimalarial Agent that Inhibits Protein Synthesis in Plasmodium falciparum” (Angewandte Chemie (International Ed. in English), 2025).

Molecules are shown by their SMILES.

Assay [1] has as its system cytosolic ribosomal subunits. Put plainly: iSPP assay, P. falciparum lysate. Conditions: lysate incubated with 100 µM; 104 stabilized proteins in total for 31. The class given is binding, Plasmodium falciparum. The text has this: To further elucidate the MoA of 31, an integral solvent‐induced protein precipitation (iSPP) assay was employed as recently described.^[ [26] ^] iSPP utilizes a solvent mixture (acetone/ethanol/acetic acid) to induce protein denaturation, allowing the detection of drug‐protein interactions by quantitative mass spectrometry based on changes in protein stability due to compound binding using cellular lysates from in vitro blood‐stage P. falciparum parasites.
P. falciparum NF54 lysates were extracted as described in ^[26^] . The parasite asynchronous culture was extracted once 3-5% parasitemia was reached. Saponin lysis was done as described in 2.2.10. […] The soluble protein fraction (supernatant) was collected and the protein content was quantified using the BCA assay (Pierce™ BCA Protein Assay Kit, Thermo Fisher Scientific). […]
The raw LFQ-DIA intensity values of biological replicates across all conditions were normalized to the median abundance using Excel. […] Dose-dependent curves were generated using normalized protein intensity values, expressed as a ratio to the vehicle control. […]

The test system of assay [2] is Uncharacterized protein (W7JXH4). The assay is described as follows: iSPP profiling, P. falciparum lysate. The class given is binding, Plasmodium falciparum. The protocol: P. falciparum NF54 lysates were extracted as described in ^[26^] . The parasite asynchronous culture was extracted once 3-5% parasitemia was reached. Saponin lysis was done as described in 2.2.10. Once the parasite pellet was obtained, 2.5 volumes of ice-cold lysis buffer (50 mM Tris/HCl pH 7.5 (Avantor), 5% glycerol (Sigma-Aldrich), 150 mM NaCl (Carl Roth), 1.5 mM MgCl2 (Sigma-Aldrich), 1 mM DTT (Carl Roth), 0.8% IGEPAL CA-630 (Sigma-Aldrich), 1X Halt Protease and Phosphatase Inhibitor-Cocktails EDTA-free (Thermo Fisher Scientific)) was added to the parasite pellet. The lysate solution was subjected to three cycles of flash freeze-thaw with liquid nitrogen and ddH2O at RT. The lysates were centrifuged at 20,000 g for 20 minutes at 4 °C. The soluble protein fraction (supernatant) was collected and the protein content was quantified using the BCA assay (Pierce™ BCA Protein Assay Kit, Thermo Fisher Scientific). The lysate was stored at -80 °C until further use.
The P. falciparum lysate was thawed on ice and diluted to 0.8 mg/mL. […] Subsequently, the samples were incubated at room temperature for 30 minutes using a rotating mixer. After distribution into a 96-well plate, the samples were treated with increasing concentrations of A.E.A. (v/v) ranging from 14% to 28% (14, 16, 18, 20, 22, 24, 26, and 28%). Following a 20-minute incubation at 37°C with shaking at 750 rpm, the samples were centrifuged at 4400 g for 35 minutes to remove precipitated proteins. The soluble fractions were then pooled in equal volumes into a single sample using the Bravo Automated Liquid Handling Platform. The pooled samples were subsequently prepared for LC-MS/MS analysis.
The raw LFQ-DIA intensity values of biological replicates across all conditions were normalized to the median abundance using Excel. The normalized values were then log2 transformed in Perseus (v2.0.10.0).^[58^] Missing values were imputed from a normal distribution (width 0.3, down shift 1.5), and p-values were obtained using a two-sample t-test over replicates with a permutation-based false discovery rate correction (FDR 0.05). Volcano plots were generated in RStudio using the EnhancedVolcano package (v. 1.20.0), ^[59^] plotting proteins by statistical significance (y-axis: –Log10 p-value) versus the magnitude of change (x-axis: log2 fold change of protein intensities for each compound condition relative to the vehicle control). The heatmap was generated in Perseus (v2.0.10.0). Dose-dependent curves were generated using normalized protein intensity values, expressed as a ratio to the vehicle control. Plots were created in GraphPad Prism (v8.3.0) using a nonlinear regression model.

In a further assay the test system is Dd2b2^pfmdr1 G182S. The class given is cell-based, Plasmodium falciparum. Conditions: Dd2b2^pfmdr1 G182S vs Dd2b2^WT. The protocol: ^[a] 72-h [^3H] hypoxanthhine incorporation assay; Data is expressed as mean±s.d. The assay was performed in three independent biological experiments, each in biological duplicates
P. falciparum asexual blood stage parasites were cultured in human red blood cells (RBC, Blutspende SRK, Zurich) at a hematocrit of 5% in RPMI 1640 medium. The RPMI 1640 medium (ThermoFisher Scientific #51800−043) was supplemented with the following: 24 mM NaHCO3 (pH 7.3, Sigma-Aldrich #31437−500G-R), 25 mM Hepes (Sigma-Aldrich #H4034−500G), 0.36 mM hypoxanthine (Sigma-Aldrich # H9377−25G), 100 µg mL^-1 neomycin (Sigma-Aldrich #N6386−100G) and 0.5% Albumax II (Thermo Fisher #11021−045). Additionally, 2 mM choline chloride (279 mg/L, Sigma-Aldrich #C7527−100G) was added to the culture to block the induction of sexual commitment as described. ^[31^] The RPMI 1640 medium and components were dissolved in water (Milli-Q purified), stirred for at least 3 h, and then sterile filtered (0.22 μm pore size) with a bottle top filter (Corning # 431118). Parasite cultures were maintained in an atmosphere of 3% O2, 4% CO2, and 93% N2 in air-tight chambers at 37 °C. The [^3H]-hypoxanthine incorporation assay was used to test compound activity in the specific parasite lines as described.^[32^] Briefly, compounds were dissolved in DMSO (10 mM) and diluted in a hypoxanthine-free culture medium. A limiting dilution was performed over a 64-fold range (6-step twofold dilution) in a 96-well plate in duplicates. For every starting concentration, a limiting dilution was performed over a 64-fold range (6-step twofold dilution) in a 96-well plate in two biological duplicates. Parasites were added at 100 µL to each well containing the compound to obtain a final parasitemia of 0.3% and haematocrit of 1.25%. The plates were incubated for 48 h before 0.25 µCi of [^3H]-hypoxanthine was added per well for an additional 24 h. Parasites were harvested on a glass-fiber filter with a Microbeta FilterMate cell harvester (Perkin Elmer, Waltham, USA) and radioactivity was counted using a MicroBeta2 liquid scintillation counter (Perkin Elmer, Waltham, US). […] The fifty percent inhibitory concentration (IC50) was calculated by using nonlinear, four parameter (variable slope) curve fitting as described ^[33^] after importing into GraphPad Prism (version 8.3.0).

On to `CN1CCN(Cc2ccc(O)c(NC(=O)c3cccc(Oc4cc(C(F)(F)F)ccn4)c3)c2)CC1` [Compound 31, N-(2-hydroxy-5-((4-methylpiperazin-1-yl)methyl)phenyl)-3-((4-(trifluoromethyl)pyridin-2-yl)oxy)benzamide], for which the “significantly stabilized proteins belonging to cytosolic ribosomal subunits” value in assay [1] turned out to be 12. The log2FC is given as 1.06 in assay [2] (10 µM); 0.61 in assay [2] (50 µM); 0.70 in assay [2] (100 µM compound 31); 0.54 in assay [2] (10^-2 µM); 0.61 in assay [2] (10^-3 µM). Moreover, the “IC50 fold shift relative to parental clone” value with Dd2b2^pfmdr1 G182S was determined as 35.7.
`O=C(Nc1cc(CN2CCOCC2)ccc1F)c1cccc(Oc2cc(C(F)(F)F)ccn2)c1` [Compound 34, N-(2-Fluoro-5-(morpholinomethyl)phenyl)-3-((4-(trifluoromethyl)pyridin-2-yl)oxy)benzamide]: the “significantly stabilized proteins belonging to cytosolic ribosomal subunits” value in assay [1] is listed as “failed to stabilize any cytosolic ribosomal proteins”. This molecule had a log2FC in assay [2] (100 µM compound 34) of 0.3904.
